Here are results for one compound from patent US20240309018A1, “THIAZOLE-LACTAM-SPIROHETEROCYCLIC COMPOUNDS AND APPLICATIONS THEREOF” (D3 BIO (WUXI) CO., LTD, priority 2021, published 2024).

Values after ≈ are worked out from the molar mass of the structure shown. Read-outs that look alike come from different tables or passages of the source.

Series [1] is described as follows: In vivo PK study in cynomolgus monkeys. Also on record: species or system cynomolgus monkey. The conditions noted are these: male cynomolgus monkeys. The protocol:
Male cynomolgus monkeys were used as assay animals. After a single administration, the plasma concentration of the compound was measured and the pharmacokinetic behavior was evaluated.
Five healthy adult male cynomolgus monkeys were selected, wherein 2 animals were in an intravenous injection group, and 3 animals were in an oral group. The vehicle in the intravenous injection group was 5% DMSO+95% (20% HP-β-CD). The compound to be assayed was mixed with an appropriate amount of vehicle for intravenous injection, and dissolved with stirring to prepare a clear solution of 0.4 mg/mL. The clear solution was filtered by a microporous membrane, and then ready for use. The vehicle in the oral group was 5% DMSO+95% (20% HP-β-CD). The compound to be assayed was mixed with the vehicle, and dissolved with stirring to prepare a solution of 0.3 mg/mL. Cynomolgus monkeys were administered 1 mg/kg intravenously or 3 mg/kg orally, and then whole blood was collected for a certain period. Plasma was prepared. The drug concentration was analyzed by LC-MS/MS method, and the pharmacokinetic parameters were calculated by Phoenix WinNonlin software (Pharsight, USA).

The next series deals with hERG potassium channel (Homo sapiens (Human), UniProt Q12809). As to the kind of experiment: hERG assay (automated patch-clamp, CHO-hERG cells). The following applies: Qpatch, highest assayed concentration 40 μM. It is filed as cell-based. The protocol: A fully automated patch-clamp method was used to assay the effect of the compound on hERG potassium channel (human Ether-a-go-go Related Gene potassium channel) current.
CHO-hERG cells were cultured in a 175 cm^2 culture flask. When cells grew to a density of 60˜80%, the culture medium was removed. Cells were washed once with 7 mL of PBS (Phosphate Buffered Saline), and then 3 mL of Detachin was added for digestion. After the digestion was completed, 7 mL of culture medium was added for neutralization, and then the mixture was centrifuged. The supernatant was aspirated, and then 5 mL of culture medium was added to resuspend the cells and ensure that the cell density was 2˜5×10^6/mL.
Extracellular solution formulation (mM): 140 NaCl, 5 KCl, 1 CaCl2), 1.25 MgCl2, 10 HEPES and 10 Glucose: the formulation was adjusted to pH of 7.4 with NaOH. […]
The single-cell high-impedance sealing and whole-cell pattern formation processes were all automatically performed by a Qpatch instrument. […] This voltage stimulation was applied every 15 seconds, and recorded for 2 minutes. The extracellular solution was then given, and recorded for 5 minutes. […]
Assay data were analyzed by GraphPad Prism 5.0 software. […]
The inhibitory effect of Cisapride with multiple concentrations on the hERG channel was measured as a positive control.
(The hERG channel carries a current that helps repolarise heart muscle cells.)

Series [2] is described as follows: Solubility study (HPLC-UV, phosphate buffers). It counts as physicochemical. The conditions noted are these: 25 °C, aqueous buffer, kinetic from dmso stock, 25±2° C., 2% DMSO, theoretical maximum 200 μM. The protocol: The solubility of the compound was determined to evaluate the solubility property of the compound.
• 1) Buffer A (pH 2.0): 50 mM phosphate buffer, pH 2.0; Buffer B (pH 6.5): 50 mM phosphate buffer, pH 6.5: Buffer C (pH 7.4): 50 mM phosphate buffer, pH 7.4; • 2) Preparation of standard solution: • a) 50% acetonitrile solution and 50% buffer solution were mixed to obtain a diluent; • b) 10 mM (10 μL/compound) compound stock solution was added to the diluent (490 μL/compound) to obtain 200 μM detection standard solution; • c) The 200 μM UV detection standard solution was diluted with 10-fold and 200-fold volume of diluents to obtain 20 μM and 1 μM UV standard solutions, respectively; • d) UV standard solutions of 1 μM, 20 µM, and 200 μM were used as standard solutions for solubility assays.
• 1) The compound was dissolved in DMSO to prepare a 10 mM stock solution. […] The pH of the corresponding solubility solutions was 2.0, 6.5 and 7.4, respectively. The theoretical maximum concentration of the assay compound is 200 μM with 2% DMSO; • 3) The plate was shaken in a shaker at room temperature (25±2° C.) at 600 rpm for 24 hours; • 4) 200 μL of the solution was pipetted from the 96-well plate, filtered with suction by a vacuum suction filtration device, and transferred into a new 96-well plate as an assay sample; • 5) The compound concentration was determined using HPLC-UV.
• 6) Three UV standard solutions from low concentration to high concentration (1 μM, 20 μM, 200 μM) were injected into HPLC, and then the assay sample of the compound to be assayed was injected; • 7) The UV chromatographic peaks were integrated, and the solubility of the sample was calculated.

hERG potassium channel, sequence (Q12809 whole entry): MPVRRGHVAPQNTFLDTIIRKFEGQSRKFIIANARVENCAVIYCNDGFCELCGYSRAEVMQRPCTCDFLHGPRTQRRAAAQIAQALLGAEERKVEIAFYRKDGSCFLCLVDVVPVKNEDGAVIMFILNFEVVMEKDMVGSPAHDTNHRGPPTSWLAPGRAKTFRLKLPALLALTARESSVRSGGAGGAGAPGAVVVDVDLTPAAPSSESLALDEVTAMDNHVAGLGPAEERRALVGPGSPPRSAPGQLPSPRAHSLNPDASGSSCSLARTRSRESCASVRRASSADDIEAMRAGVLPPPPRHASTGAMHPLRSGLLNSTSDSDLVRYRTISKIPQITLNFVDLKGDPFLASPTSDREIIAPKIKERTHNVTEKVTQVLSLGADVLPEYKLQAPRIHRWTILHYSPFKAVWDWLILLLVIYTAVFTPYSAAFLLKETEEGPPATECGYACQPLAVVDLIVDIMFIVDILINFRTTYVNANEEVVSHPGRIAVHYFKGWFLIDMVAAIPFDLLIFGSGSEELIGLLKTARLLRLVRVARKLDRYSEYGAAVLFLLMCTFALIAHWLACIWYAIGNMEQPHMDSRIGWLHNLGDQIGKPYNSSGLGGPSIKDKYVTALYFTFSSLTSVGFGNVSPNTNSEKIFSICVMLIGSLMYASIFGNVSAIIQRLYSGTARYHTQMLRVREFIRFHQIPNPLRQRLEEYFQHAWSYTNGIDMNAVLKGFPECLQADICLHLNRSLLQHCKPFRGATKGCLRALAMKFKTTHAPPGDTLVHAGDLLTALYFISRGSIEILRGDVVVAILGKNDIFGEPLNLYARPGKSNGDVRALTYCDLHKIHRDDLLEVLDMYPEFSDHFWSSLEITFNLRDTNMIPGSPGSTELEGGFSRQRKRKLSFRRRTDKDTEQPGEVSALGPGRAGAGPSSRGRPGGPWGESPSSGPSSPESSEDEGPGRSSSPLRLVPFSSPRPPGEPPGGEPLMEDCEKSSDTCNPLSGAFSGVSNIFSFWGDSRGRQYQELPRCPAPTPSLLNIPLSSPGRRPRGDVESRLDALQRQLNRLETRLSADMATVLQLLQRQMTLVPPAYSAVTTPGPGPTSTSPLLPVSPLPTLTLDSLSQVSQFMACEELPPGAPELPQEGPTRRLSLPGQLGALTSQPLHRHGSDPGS

One may read the half-life as how long it takes for the measured level to halve. What is called bioavailability is the share of a dose that reaches the circulation, judged against a reference dose that is usually intravenous. As a reminder, the Cmax is the maximum level reached in the sampled fluid or tissue. In general, IC50 refers to the concentration that inhibits the measured activity by half. By solubility is commonly meant the dissolved amount per volume that the medium holds. In series [1] (cynomolgus monkey, plasma, intravenous, 1 mg/kg intravenously or 3 mg/kg orally), `Cc1cccc(CN2C(=O)c3nc(-c4nc(Nc5ccnn5C)ncc4C)sc3C23COC3)n1` [WX001] displayed a clearance of 16.1 mL/min/kg. The Vd in series [1] (cynomolgus monkey, plasma, intravenous, 1 mg/kg intravenously or 3 mg/kg orally, read-out: Vdss) is 1.98 L/kg. The compound also had a half-life in series [1] (cynomolgus monkey, plasma, 1 mg/kg intravenously or 3 mg/kg orally) of 2.41 h. Also, the bioavailability in series [1] (cynomolgus monkey, plasma, 1 mg/kg intravenously, 3 mg/kg orally, oral bioavailability) stood at 50%. For the same compound, the peak level in series [1] (cynomolgus monkey, single dose, 1 mg/kg intravenously or 3 mg/kg orally, plasma) (Cmax) was 921 nM. Besides, the “Oral DNAUC” value in series [1] (3 mg/kg orally, AUCPO/Dose) is 1152.35 nM · h/mpk. The IC50 on hERG potassium channel is above 40 µM. Moreover, the solubility at 24 h amounted to 200 µM (≈ 94.7 µg/mL) in series [2] (50 mM phosphate buffer pH 2.0, 24 hours, read-out: Solubility at pH = 2.0); 2.94 µM (≈ 1.4 µg/mL) in series [2] (50 mM phosphate buffer pH 6.5, 24 hours, read-out: Solubility at pH = 6.5); 2.64 µM (≈ 1.25 µg/mL) in series [2] (50 mM phosphate buffer pH 7.4, 24 hours, read-out: Solubility at pH = 7.4).
